Experiments:
Assay in all cases: IgG dLIA with pAb standards, NHP sera, CpG study (Example 5)
Type in all cases: in vivo, rhesus macaque
[1] = tested on: E. coli O-antigen serotype O1a; details: 4 valent O-antigen SCP with CpG 1800 μg; dLIA standard (pAb/mAb) not specified; listed as CpG
Description: (§1) The 4-plex O-antigen IgG dLIA serology assay was completed as follows: The primate serology assay utilized the same O-antigen MagPlex®-C microspheres (Luminex) as the mouse serology assay described in Example 3, above. Microspheres were incubated with serially diluted NHP serum samples, controls, and human polyclonal serum standards overnight at 2-8° C. while shaking. In this case, bound serotype-specific IgG was detected with PE-conjugated goat anti-human IgG. Fcγ fragment-specific secondary antibody (Jackson Laboratories) and fluorescence was measured on the FlexMap 3D instrument ([…]). Human serum containing IgG to all four O-antigens was used as an internal standard for interpolating NHP serum IgG concentrations. […] Lower limit of quantification (LLOQ) was defined as 2 U/mL.
(§2) In this study, the adjuvanting effect of nucleotide adjuvant CpG 24555 on immunogenicity of E. coli O-antigen SCP glycoconjugates of serotypes O1a, O2, O6, and O25b was assessed in a NHP (Rhesus Macaques) model.
(§3) 20 male rhesus macaques were selected for this study. Three groups of Rhesus macaques were vaccinated with the 4 valent O-antigen SCP glycoconjugates including one group without CpG adjuvant, one group with CpG adjuvant and a lower dose of the 4 valent O-antigen SCP glycoconjugates, and one group with CpG adjuvant and a higher dose of 4 valent O-antigen SCP glycoconjugates. The no adjuvant control group, as well as the group with CpG adjuvant and the higher dose of glycoconjugates included 2 μg of serotypes O1a, O2, and O6, as well as 4 μg of serotype O25b. The group with CpG adjuvant and the lower dose of glycoconjugates included 0.5 μg of serotypes O1a, O2, and O6, as well as 1 μg of serotype O25b. Vaccination was administered at months 0, 2, and 6. Animals were bled prior to vaccination and at weeks 1, 2, 4, 6, 9, 10, 12, 25, and 26. 0.5 mL of vaccine formulation was injected intramuscularly (IM).
(§4) Geometric mean titers (GMTs) of IgG antibodies specific for each of the respective 0-antigen serotypes O1a, O2, O6, and O25b were quantified using a Luminex 4-plex dLIA assay. The 4-plex O-antigen IgG dLIA serology assay was completed as described in Example 4, above. Table 21 and 22, below, present data for IgG GMT titers for each of serotypes O1a, O2, O6, and O25b.

[2] = tested on: E. coli O-antigen serotype O25b; details: 4 valent O-antigen SCP with CpG 1800 μg; after each vaccination; dLIA standard (pAb/mAb) not specified; listed as CpG
Description: as §1, §2, §3, §4

[3] = tested on: E. coli O-antigen serotype O2; details: 4 valent O-antigen SCP with CpG 1800 μg, dLIA standard (pAb/mAb) not specified
Description: as §1, §2, §3, §4

[4] = tested on: E. coli O-antigen serotype O6; details: 4 valent O-antigen SCP with CpG 1800 μg, dLIA standard (pAb/mAb) not specified
Description: as §1, §2, §3, §4

## CpG 24555 [CpG adjuvant]
[1]
  Serotype O1a IgG titers, fold increase vs. unadjuvanted titers: greater than twenty-fold increases
[2]
  Serotype O25b IgG titers, fold increase vs. unadjuvanted titers: greater than twenty-fold increases
[3]
  Serotype O2 IgG titers, fold increase vs. unadjuvanted titers: less than 10 fold
[3]; listed as CpG
  Serotype O2 IgG titers, fold increase vs. unadjuvanted titers: up to ten-fold increases
[4]
  Serotype O6 IgG titers, fold increase vs. unadjuvanted titers: less than 10 fold
[4]; listed as CpG
  Serotype O6 IgG titers, fold increase vs. unadjuvanted titers: up to ten-fold increases

Reference: patent US20250281590A1, “IMMUNOGENIC COMPOSITIONS COMPRISING CONJUGATED ESCHERICHIA COLI SACCHARIDES AND USES THEREOF” (Pfizer Inc., priority 2024, published 2025)
